Experimental data published in patent US6471973B2 (Coletica, priority 1998, dated 2002).

What was measured:
[1] = in vivo
Method: This preparation is used for the following toxicity studies:
The tests were performed by the official method in accordance with the decree of Feb.

[2] = Oxidation stability test on flavonoids in simple preparations (color of solutions); type: physicochemical; settings: 0.103 M in ethoxydiglycol, Pantone color
Method: A solution of […] containing 31.1 g/l (i.e. 0.103 M) is prepared in ethoxy-diglycol. The pH is adjusted to 5 or 6 and then 10 g/l of a preservative based on parabens are added to the mixture in order to avoid bacterial pollution. […] At identical molar concentrations, the two products are therefore compared for their oxidation stability, the color parameters being used as the stability indicators. The color references given in the Examples which follow refer to the Pantone colors as used in all the paint color charts well known to those skilled in the art.

[3] = Oxidation stability test on flavonoids in complex preparations (emulsions); type: physicochemical; settings: 45° C.
Method: Oxidation stability test on flavonoids in complex preparations (emulsions) Composition of the formulation: [table] After studying the stabilities over about 1 month, it can be said that the color of the formulations containing flavonoids used in the form which has not been rendered lipophilic undergoes an extremely unfavorable change at 45° C.

[4] = molecular target: T1, human leukocytic elastase (Homo sapiens, UniProt P08246); assay: Determination of the anti-elastase activity (elastin-rhodamine, fluorescence); type: biochemical; settings: solubilized in ethoxydiglycol, 20 min at 37° C.
T1 sequence (P08246 30-267): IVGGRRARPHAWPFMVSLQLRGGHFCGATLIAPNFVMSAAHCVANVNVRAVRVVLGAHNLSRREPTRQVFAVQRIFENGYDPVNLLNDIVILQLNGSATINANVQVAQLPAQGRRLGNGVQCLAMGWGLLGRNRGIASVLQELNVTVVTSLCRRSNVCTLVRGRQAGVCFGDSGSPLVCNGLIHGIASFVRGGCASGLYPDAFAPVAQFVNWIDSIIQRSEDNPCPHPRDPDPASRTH
Method: The enzymatic substrate elastin-rhodamine is dissolved in TrisHCl buffer (31.52 g of TrisHCl, water qsp 1000 ml) of pH 8.8 at a rate of 15 mg/ml. 1 mg of human leukocytic elastase is dissolved in 20 ml of TrisHCl buffer. The products of the invention are evaluated for their capacity to inhibit the degradation of elastin, which can be followed by fluorescence (excitation at 530 nm; emission at 590 nm) after the incubation, for 20 min at 37° C., of a mixture comprising the substrate, the enzyme and the inhibitor to be tested. The results are given as % inhibition relative to the inhibitor-free control.

[5] = Determination of the free radical inhibiting activity in vitro; settings: 30 minutes; for % free radical inhibiting activity: dissolved in ethoxydiglycol, control subtracted; for Free radical inhibiting activity: compound at 25 mM, dissolved in DMSO, DMSO control subtracted
Method: A 60 μM solution of 1,1-diphenyl-2-picrylhydrazyl in ethanol is placed in contact, for 30 minutes at room temperature, with a sample originating from the products of the invention whose free radical inhibiting power is to be determined. […] The higher the percentage decrease, the stronger will be the free radical inhibiting activity of the active ingredient tested.

[6] = test concentration 1.03^−3 mol/l
[7] = test concentration 1.03^−4 mol/l
[8] = test concentration 1.03^−5 mol/l

Compound: CCCC(=O)Oc1cc(OC(=O)CCC)c2c(c1)OC(c1ccc(OC)c(OC(=O)CCC)c1)CC2=O (stereo not shown) [Example 12, hesperitin triacylated by C4]
- Skin irritation [1]: did not cause any irritation phenomena

Compound: COc1ccc([C@@H]2CC(=O)c3c(O)cc(O)cc3O2)cc1O [Hesperitin, hesperitin]
- Color of the solutions 1 day after manufacture ([2]; pH 5, 4° C.): 157C
- Color of the solutions 21 days after manufacture ([2]; pH 5, 4° C.): black +
- Color of the solutions 1 day after manufacture ([2]; pH 5, 20° C.): 157C
- Color of the solutions 21 days after manufacture ([2]; pH 5, 20° C.): black +
- Color of the solutions 1 day after manufacture ([2]; pH 5, 45° C.): 157C
- Color of the solutions 21 days after manufacture ([2]; pH 5, 45° C.): black +
- Color of the solutions 1 day after manufacture ([2]; pH 6, 4° C.): 157C
- Color of the solutions 21 days after manufacture ([2]; pH 6, 4° C.): black +
- Color of the solutions 1 day after manufacture ([2]; pH 6, 20° C.): 157C
- Color of the solutions 21 days after manufacture ([2]; pH 6, 20° C.): black +
- Color of the solutions 1 day after manufacture ([2]; pH 6, 45° C.): 157C
- Color of the solutions 21 days after manufacture ([2]; pH 6, 45° C.): black +
- Stability test: color of cream, T 1 day ([3]; 520 μM in cream (emulsion)): light beige
- Stability test: color of cream, T 7 days ([3]; 520 μM in cream (emulsion)): yellow
- Stability test: color of cream, T 25 days ([3]; 520 μM in cream (emulsion)): yellow
- Stability test: color of cream, T 35 days ([3]; 520 μM in cream (emulsion)): yellow
- Stability test: color of cream, T 1 day ([3]; 1043 μM in cream (emulsion)): more
- Stability test: color of cream, T 7 days ([3]; 1043 μM in cream (emulsion)): very yellow
- Stability test: color of cream, T 25 days ([3]; 1043 μM in cream (emulsion)): very yellow
- Stability test: color of cream, T 35 days ([3]; 1043 μM in cream (emulsion)): very yellow
- Anti-elastase test: % inhibition relative to the inhibitor-free control [4, 6]: 20%
- Anti-elastase test: % inhibition relative to the inhibitor-free control [4, 7]: 24%
- Anti-elastase test: % inhibition relative to the inhibitor-free control [4, 8]: 0%
- % free radical inhibiting activity ([5]; 0.103 mol/l): 94%
- % free radical inhibiting activity ([5]; 1.03^−3 mol/l): 28%
- % free radical inhibiting activity ([5]; 1.03^−5 mol/l): 8%
- Free radical inhibiting activity [5]: 42%

Compound: Hesperitin monoacylated by C12 [Example 7]
- Anti-elastase test: % inhibition relative to the inhibitor-free control ([4]; test concentration 0.103 mol/l): 100%
- Anti-elastase test: % inhibition relative to the inhibitor-free control [4, 6]: 50%
- Anti-elastase test: % inhibition relative to the inhibitor-free control [4, 7]: 36%
- Anti-elastase test: % inhibition relative to the inhibitor-free control [4, 8]: 34%

Compound: hesperitin diacylated by C12 [Example 6]
- Anti-elastase test: % inhibition relative to the inhibitor-free control ([4]; test concentration 0.103 mol/l): 100%
- Anti-elastase test: % inhibition relative to the inhibitor-free control [4, 6]: 65%
- Anti-elastase test: % inhibition relative to the inhibitor-free control [4, 8]: 29%
- Free radical inhibiting activity [5]: 67%

Compound: hesperitin triacylated by C18:2 [Example 15]
- Skin irritation [1]: did not cause any irritation phenomena
